We go through 3 compounds from patent US20060198882A1, “Stable liposomes or micelles comprising a sphinolipid and a peg-lipopolymer” (priority 2003, published 2006).

Structures are written as SMILES.

One series has as its system C-26 cells. Kind of series: Apoptosis by chromatin morphology (Hoechst-33342, confocal microscopy). The class given is cell-based, human. The method, then: (§1) a) The morphology of chromatin was assessed by staining with Hoechst-33342 obtained from Calbiochem (La Jolla, Calif.), a molecule which when reside in the minor groove of the DNA strand enhance its fluorescence intensity and, therefore, it is preferentially stains dsDNA [Jouvet, P. Mol. Biol. Cell 11:1919-1932 (2000)]. Briefly, samples containing 5*10^5 cells were cultured on 6-well plates covered with a glass coverslip. After treatment of cells with IC50 of drugs, cells were washed with PBS and fixated with 4% formaldehyde. After that cells were stained with Hoechst-33342 (5 μg/ml) and washed. Thereafter, glass coverslip was placed on a glass slide and photographed using a CLMS.

The subject of the next series is OV-1063 cells. The description is as above. The following applies: for Apoptotic OV-1063 cells (% of total cell number), 16 hr: IC50 concentrations. The class given is cell-based, human. The protocol: as §1
Series [1] in a line: Size distribution of ceramide dispersions by DLS. Format: physicochemical. The protocol: The particle size distribution of all liposome dispersions prepared was determined at 25° C. by dynamic light-scattering (DLS) using the ALV-NIBS/HPPS ALV-Laser, Vertriebsgesellschaft GmbH, (Langen, Germany) instrument.
However, so far the biological activity of the ceramides was not evaluated in vivo in spite their potential beneficial activity due to difficulties in their delivery. As mentioned above, ceramides by themselves are difficult to be dispersed in serum-free medium. […] When a volume of ceramides (C2Cer, C6Cer, and C16Cer) in ethanol:dodecane (98:2 v/v) was diluted into 100 volumes of serum-free medium a milky translucent dispersion was formed.
However, when these ceramide dispersions were diluted further (final dilution 1:1000) in serum-containing medium, a 4-6 fold increase in particle size was observed. As a control, when the solvents ethanol:dodecane (98:2) were mixed by themselves with medium without ceramides, no particles were detected by DLS. Also, for comparison, when ceramide solutions in ethanol (without dodecane) were diluted 1:100 in serum-containing medium very large particles were observed by DLS (Table 11).

A short description of series [2]: Injection of ceramide dispersions into mice (tolerance, weight). The following applies: for decrease from initial weight: mouse, in vivo. The protocol: […] of C2Cer and C6Cer dispersions in ethanol or in ethanol:dodecane (98:2) (required final blood concentration of about 3.3%) were injected to the Balb/c female mice (8 week old).
In addition, 1 μmole/mouse of C2Cer and C6Cer dispersions in ethanol or in ethanol:dodecane (98:2) in isotonic BSA solution (BSA 2 mM, NaCl 112 mM, pH 7.4) was injected in order to reach the final ethanol or ethanol:dodecane blood concentration of about 3.3%. For the preparation of ceramide-BSA complexes the 33 μl of 30 mM stock of C2Cer and C6Cer dispersions were incubated for 30 min at 30° C. with 417 μl of 2 mM BSA solution in order to reach the ceramide/BSA mole ratio of 1/0.8, respectively [Hannun, Supra, 2000].

Series [3] deals with C-26 colon carcinoma cells. Kind of series: Cell uptake and metabolism of radiolabelled ceramide assemblies. The class given is cell-based, human. The protocol:
C-26 colon carcinoma cells were seeded into six-well plates at density of 2.5×10^5 in 2 ml of complete RPMI-1640 medium supplemented with 10% FCS, antibiotics, and glutamine. The cells were allowed to grow for 48 hr and replaced with 1 ml of complete serum containing medium. […] The radioactive doses of ceramides and lipid (dpm/μmole) are described in Table 2C. After these predefined time periods cells were tripsinized and washed twice with PBS. Cell lipids, lipids of the medium and lipids of the wash fraction were extracted by the Bligh and Dyer procedure [E. G. Bligh and W. J. Dyer, Can. J. Biochem. Physiol. 37:[…] (1959)]. Briefly, chloroform, methanol, and DDW were added to the cells at a final ratio of 1:2:1 (by vol.), and incubated for 10 min at 45° C. Then the mixtures were centrifuged at […] for 5 min. The supernatants containing the lipids were taken and chloroform and DDW were added in order to reach the final volume ratio of chloroform: methanol:DDW of 1:1:1. Two phases were formed and well separated after centrifugation. The water/methanol rich upper phase was removed while the chloroform-rich lower phase which contains >99% of the lipids was washed once with synthetic upper phase composed of chloroform:methanol:DDW (6:94:96, by volume). The lipid-containing lower phase was dried under nitrogen stream and redissolved in chloroform: methanol (2:1, by vol.) ready for analysis.
The lipid mixture was applied to silica gel TLC plates and developed in the solvent system of chloroform:methanol: DDW (84:16:1,5, by vol.) and detected by Copper sulfate reagent. The TLC plates were photographed by the Fluor-S-Multyimiger (Bio-Rad, Hercules, Calif.). Migration of lipids from cells extracts, medium, and wash fractions was visualized in comparison to a different well established commercial markers. The retention factor RF (defined as the distance traveled by the compound divided by the distance traveled by the solvent) of various molecules are as follows: SPM-0.04, EPC or HSPC-0.1, DOTAP: 0.24, GalCer: 0.29-0.38, GluCer: 0.4, C6 Cer: 0.68, and C16 Cer: […].
The TLC plates were then subjected overnight to imaging plate and the radioactivity was measured by Bio-Imaging analyzer (FUJI BAS 1000, Japan) then the radioactive bands were scraped from the TLC plate, placed into the test tube containing scintillation medium Opti-Fluor (Packard Bioscience, Groningen, Netherlands) and the radioactivity was counted by a β-counter.
The uptake and metabolism of radiolabelled liposomal or free C6Cer were studied in C-26 colon carcinoma cells. Cells were incubated with either free ^14C6Cer (in ethanol) or with liposomal C6Cer. Total lipids were extracted and the level of uptake and metabolites were determined from cells and growth medium as described in Materials and Methods.

The nature of series [4]: Conversion of C6Cer in cell derived or fresh medium. Format: in vitro ADME.

As for `CCCCCCCCCCCCC/C=C/[C@@H](O)[C@H](CO)NC(=O)CCCCCCCCCCCCCCC` [C16Cer, N-palmitoyl-D-erythro-sphingosine], in the series with C-26 cells, the “Apoptotic C-26 cells (% of total cell number), 24 hr” value is 9%. For the same compound, the “Apoptotic OV-1063 cells (% of total cell number), 24 hr” value in the series on OV-1063 cells is given as 17%. In addition, in series [1], the “Size (nm), Ethanol dispersion in serum-containing medium (1:100)” value (shortened to “Size (nm), Ethanol dispersion”) is 4740 nm; the “Size (nm), Ethanol:dodecane (98:2) dispersion in serum-containing medium (1:1000)” value (“Size (nm), Ethanol:dodecane … (1:1000)” for short) came to 2824 nm; the “Size (nm), Ethanol:dodecane (98:2) dispersion in serum-free medium (1:100)” value (“Size (nm) … in serum-free medium (1:100)” for short) is given as 790 nm.

As for `CCCCCCCCCCCCC/C=C/[C@@H](O)[C@H](CO)NC(C)=O` [C2Cer, N-Acetyl-D-erythro-sphingosine], in the series on C-26 cells, the “Apoptotic C-26 cells (% of total cell number), 16 hr” value is 7% and the “Apoptotic C-26 cells (% of total cell number), 24 hr” value is listed as 14%. Further, in the series on OV-1063 cells, the “Apoptotic OV-1063 cells (% of total cell number), 24 hr” value is reported as 60% and the “Apoptotic OV-1063 cells (% of total cell number), 16 hr” value was 48%. In series [1], the “Size (nm), Ethanol dispersion” value was found to be 6514 nm; the “Size (nm), Ethanol:dodecane … (1:1000)” value was 1400 nm; the “Size (nm) … in serum-free medium (1:100)” value came to 330 nm. For the same compound, in series [2], the “decrease from initial weight” value was “about 5%”.

For `CCCCCCCCCCCCC/C=C/[C@@H](O)[C@H](CO)NC(=O)CCCCC` [C6Cer, N-hexanoyl-D-erythro-sphingosine], in series [3] (2 hr), the “Cell uptake (%) of ^14C6Cer” value was determined as 39.9%. For the same compound, in series [3] (2 hr, 20 μM ceramide), the “Cell uptake (nmole) of ^14C6Cer” value came out at 13.7 nmol. In series [3] (24 hr), the “Cell uptake (%) of ^14C6Cer” value was 93.7% and the “Cell uptake (nmole) of ^14C6Cer” value amounted to 34.5 nmol. Further, in series [3] (72 hr), the “Cell uptake (%) of ^14C6Cer” value is listed as 72% and the “Cell uptake (nmole) of ^14C6Cer” value amounted to 24.5 nmol. The “ceramide converted into C6 SPM” value in series [4] (cell derived medium (taken from C26 cells)) is given as 9%. Moreover, the metabolic activity entry in series [4] (fresh medium) is given as “no metabolitic activity”. Further, in the series on C-26 cells, the “Apoptotic C-26 cells (% of total cell number), 16 hr” value amounted to 9% and the “Apoptotic C-26 cells (% of total cell number), 24 hr” value amounted to 18%. For the same compound, in the series with OV-1063 cells, the “Apoptotic OV-1063 cells (% of total cell number), 24 hr” value worked out at 61% and the “Apoptotic OV-1063 cells (% of total cell number), 16 hr” value stood at 53%. In series [1], the “Size (nm), Ethanol dispersion” value is on record as 3780 nm; the “Size (nm), Ethanol:dodecane … (1:1000)” value was 2100 nm; the “Size (nm) … in serum-free medium (1:100)” value was 330 nm. For the same compound, the death of mice entry in series [2] (ethanol:dodecane (98:2) dispersions) was “died during the injection”. The “decrease from initial weight” value in series [2] is on record as “about 5%”.
